Data set [1] in a line: Stability in human liver microsomes. Type of data set: in vitro ADME. The settings on record: both sexes, pooled human liver microsomes, 0.5 mg/mL protein, 3 μM compound, pH 7.4, 37° C., NADPH, read-out: T ½ human liver microsomes. How it is done: Pooled human or rat liver microsomes (pooled male and female) were prepared and stored at −80° C. prior to use. […] The final incubation volume was 25 μL. A control incubation was included for each compound tested in which 0.1M phosphate buffer (pH 7.4) was added instead of NADPH (minus NADPH). Two control compounds were included with each species. All incubations were performed singularly for each test compound.
The reactions were stopped by the addition of 50 μL methanol containing internal standard at the appropriate time points. The incubation plates were centrifuged at 2,500 rpm for 20 mins at 4° C. to precipitate the protein.
Following protein precipitation, the sample supernatants were combined in cassettes of up to 4 compounds and analysed using Cyprotex generic LC-MS/MS conditions. […] The time point at which 30-50% of parent had degraded could then be investigated at 3 different levels of metabolite profiling and/or identification.
From a plot of ln peak area ratio (compound peak area/internal standard peak area) against time, the gradient of the line is determined. Subsequently, half-life and intrinsic clearance are calculated using the equations below: Elimination rate constant (k)=(−gradient)
[formula] [formula] • where V=Incubation volume (μL/mg microsomal protein).
(In general: Liver microsomes are vesicles of endoplasmic reticulum, rich in cytochrome P450 enzymes.)

In the next data set the test system is STF/REN HEK293 cells. As to the kind of experiment: Wnt3a-induced ST-Luc/Renilla luciferase reporter assay in STF/REN HEK293 cells. In kind it is cell-based. The settings on record: Homo sapiens, 24 hours compound in 50% Wnt3a conditioned media, average of multiple experiments. How it is done:
HEK293 cells (80,000 cells per well) were seeded in 96-well plates coated with poly-L lysine. 24 hours after seeding, the cells were incubated for an additional 24 hours with various compound concentrations in 50% Wnt3a containing conditioned media (from L Wnt3a-expressing cells (ATCC)). A minimum of three replicates was used for each sample. After compound exposure, the cells were lysed and the firefly luciferase and Renilla activities were measured on a GloMax® 96 Microplate Luminometer with Dual Injectors (Promega).
XLfit (idbs) was used to determine the IC50 values in inhibition experiments. The data were fit to the following formula:
IC50: Langmuir Binding Isotherm: fit=((A+(B*x))+(((C−B)*(1−exp((−1*D)*x)))/D)) res=(y−fit)
All values shown are average values from multiple experiments.
For orientation: A reporter such as luciferase makes a cellular process visible.

Another data set relates to AXIN2. As to the kind of experiment: Immunostaining of AXIN2 in SW480 cells. In kind it is cell-based. The following applies: 0.5 μmol/L, 18 hours, confocal microscopy. How it is done:
(§1) After incubation, the cells were fixed in 4% PFA in PBS for 10 minutes. Immunostaining was performed as described in standard protocols. Primary antibodies used were β-catenin (610153, BD Transduction Laboratories™) or AXIN2 (76G6, Cell Signaling Technology). Secondary antibodies used were DyLight549 (555) donkey-anti-mouse and Cy2-donkey-anti-rabbit (both Jackson ImmunoResearch, 1:1000). The samples were imaged using a Zeiss Axiovert 200M Fluorescence/Live cell Imaging Microscope at 40 times magnification. A Zeiss LSM780 at 63 times magnification was used for confocal microscopy

The subject of another data set is HT29 cells. As to the kind of experiment: IncuCyte cell proliferation assay, HT29. The settings on record: 0.1, 1, 5 μmol/L. Type of data set: cell-based. How it is done:
(§2) All cells were purchased from ATCC (American Type Culture Collection) and maintained according to the supplier's recommendations. Cells used were RKO, HCT-15, WiDr, HT29, DLD-1, COLO320DM and COLO205 cells. 1,000 cells were seeded in 96-well plates with the recommended media. […] All samples were assessed in a minimum of six replicates. Plates were incubated in an IncuCyte™ (Essen BioScience) inside a cell culture incubator. Images were captured every second hour to monitor cell proliferation. Mutations in the Adenomatouse Polyposis Coli (APC) gene, which occur in most colorectal cancers (CRC), lead to ineffective degradation of β-catenin and aberrant up-regulation of Wnt signaling. As a result, CRC cells may undergo cell cycle arrest as a result of antagonized canonical Wnt. Therefore, the kinetics of cell proliferation was monitored in selected Wnt responsive CRC cell lines by using an IncuCyte life tracking system.

Another data set has as its system β-catenin. The data set is described as follows: Immunostaining of β-catenin in SW480 cells. The following applies: 500 nmol/L, 18 hours, immunofluorescence. Type of data set: cell-based. The protocol: as §1
For a further data set, the system named is DLD-1 cells. As to the kind of experiment: IncuCyte cell proliferation assay, DLD-1. In kind it is cell-based. The settings on record: 0.1, 1, 5 μmol/L. How it is done: as §2
In the next data set the target is T1, PARP1 (Homo sapiens, UniProt P09874).
T1 construct: purchased BPS Bioscience, Nordic Biosite 80551
As to the kind of experiment: Chemiluminescent Assay Kit, PARP1. In kind it is biochemical.

A further data set concerns HCT-15 cells. The data set is described as follows: IncuCyte cell proliferation assay, HCT-15. The settings on record: 0.1, 1, 5 μmol/L. Type of data set: cell-based. The protocol: as §2
Another data set relates to RKO cells. As to the kind of experiment: IncuCyte cell proliferation assay, RKO. Type of data set: cell-based. The following applies: RKO (Wnt-independent control, wild type APC); 0.1, 1, 5 μmol/L. The protocol:
as §2

Another data set has as its system COLO205 cells. The data set is described as follows: IncuCyte cell proliferation assay, COLO205. The settings on record: 0.1, 1, 5 μmol/L. Type of data set: cell-based. The protocol:
as §2

In another data set the test system is WiDr cells. As to the kind of experiment: IncuCyte cell proliferation assay, WiDr. Type of data set: cell-based. The following applies: 0.1, 1, 5 μmol/L. The protocol:
as §2

The subject of another data set is COLO320DM cells. As to the kind of experiment: IncuCyte cell proliferation assay, COLO320DM. The following applies: 0.1, 1, 5 μmol/L. Type of data set: cell-based. The protocol: as §2

SMILES strings stand for the structures. pIC50: −log10 of the molar value. Where only a bound is given, the exact number is not on record here.

T1 sequence (P09874 whole entry): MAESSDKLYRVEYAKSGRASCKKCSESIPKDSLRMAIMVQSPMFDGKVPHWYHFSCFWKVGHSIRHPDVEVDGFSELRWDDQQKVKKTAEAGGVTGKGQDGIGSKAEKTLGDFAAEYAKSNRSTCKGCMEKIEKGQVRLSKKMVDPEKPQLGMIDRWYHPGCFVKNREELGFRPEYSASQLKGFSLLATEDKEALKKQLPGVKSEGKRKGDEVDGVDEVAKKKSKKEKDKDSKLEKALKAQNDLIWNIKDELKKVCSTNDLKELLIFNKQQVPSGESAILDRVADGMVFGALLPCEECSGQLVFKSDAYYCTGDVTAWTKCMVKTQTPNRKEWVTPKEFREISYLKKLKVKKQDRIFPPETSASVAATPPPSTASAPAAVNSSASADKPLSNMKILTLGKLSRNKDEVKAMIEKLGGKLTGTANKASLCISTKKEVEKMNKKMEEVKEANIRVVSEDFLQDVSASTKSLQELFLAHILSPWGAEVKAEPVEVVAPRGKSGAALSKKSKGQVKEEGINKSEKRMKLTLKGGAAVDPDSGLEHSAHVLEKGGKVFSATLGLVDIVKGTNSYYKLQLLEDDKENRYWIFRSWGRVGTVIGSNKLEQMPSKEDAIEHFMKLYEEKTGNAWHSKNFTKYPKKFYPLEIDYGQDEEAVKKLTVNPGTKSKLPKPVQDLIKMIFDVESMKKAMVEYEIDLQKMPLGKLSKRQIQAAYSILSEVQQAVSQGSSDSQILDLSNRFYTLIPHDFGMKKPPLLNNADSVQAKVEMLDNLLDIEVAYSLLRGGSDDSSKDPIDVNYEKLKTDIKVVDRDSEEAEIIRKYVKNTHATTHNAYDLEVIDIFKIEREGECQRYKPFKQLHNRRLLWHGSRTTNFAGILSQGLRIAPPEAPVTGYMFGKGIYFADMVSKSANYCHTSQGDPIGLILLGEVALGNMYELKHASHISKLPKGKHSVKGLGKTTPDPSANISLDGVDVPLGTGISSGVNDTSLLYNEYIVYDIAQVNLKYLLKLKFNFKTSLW

As for `COc1cc(-c2nnc(/C=C/c3nnc(-c4ccc(F)cc4)n3-c3ccccc3Cl)o2)ccn1` [(6)], the half-life at 3 μM in data set [1] is 48 min. Besides, the negative-log IC50 (pIC50) (in general, −log10 of the IC50, conventionally taken in molar units) in the data set with STF/REN HEK293 cells was 5.92.
As to `COc1cc(C(=O)NNC(=O)/C=C/c2nnc(-c3ccc(F)cc3)n2-c2ccccc2Cl)ccn1` [(7)], the negative logarithm of the IC50 (pIC50) in the data set on STF/REN HEK293 cells is < 5.00.
For the molecule `Oc1cc(-c2nnc(/C=C/c3nnc(-c4ccc(F)cc4)n3-c3ccccc3Cl)o2)ccn1` [(8)], the half-life at 3 μM in [1] is 128 min. Besides, the pIC50 in the data set on STF/REN HEK293 cells is 5.20.
In the same order, the values of `COc1cc(-c2nnc(/C=C/c3nnc(-c4ccc(Cl)cc4Cl)n3-c3ccccc3Cl)o2)ccn1` [Compound (1), 4-(5-((E)-2-(5-(2,4-dichlorophenyl)-4-(2-chlorophenyl)-4H-1,2,4-triazol-3-yl)vinyl)-1,3,4-oxadiazol-2-yl)-2-methoxypyridine] are 162 min and 6.03.
Taken in the same sequence, the figures for `COc1cc(-c2nnc(/C=C/c3nnc(-c4ccc(S(C)(=O)=O)cc4)n3-c3ccccc3Cl)o2)ccn1` [Compound (2), 4-(5-((E)-2-(4-(2-chlorophenyl)-5-(4-(methylsulfonyl)phenyl)-4H-1,2,4-triazol-3-yl)vinyl)-1,3,4-oxadiazol-2-yl)-2-methoxypyridine] were 224 min and 6.55.
Taken in the same sequence, the figures for `COc1cc(-c2nnc(/C=C/c3nnc(-c4ccncc4)n3-c3ccccc3Cl)o2)ccn1` [Compound (3), 4-(4-(2-chlorophenyl)-5-((E)-2-(5-(2-methoxypyridin-4-yl)-1,3,4-oxadiazol-2-yl)vinyl)-4H-1,2,4-triazol-3-yl)pyridine] were 37.6 min and 6.72.
Consider `COc1cc(-c2nnc(/C=C/c3nnc(-c4ccc(Cl)cn4)n3-c3ccccc3Cl)o2)ccn1` [Compound (4), 5-chloro-2-(4-(2-chlorophenyl)-5-((E)-2-(5-(2-methoxypyridin-4-yl)-1,3,4-oxadiazol-2-yl)vinyl)-4H-1,2,4-triazol-3-yl)pyridine], for which the half-life at 3 μM in [1] turned out to be 44.9 min. In the data set with STF/REN HEK293 cells, this molecule gave a negative-log IC50 (pIC50) of 6.62.
In the same order, the values of `COc1cc(-c2nnc(/C=C/c3nnc(-c4nc(C)no4)n3-c3ccccc3Cl)o2)ccn1` [Compound (5), 4-(5-((E)-2-(4-(2-chlorophenyl)-5-(3-methyl-1,2,4-oxadiazol-5-yl)-4H-1,2,4-triazol-3-yl)vinyl)-1,3,4-oxadiazol-2-yl)-2-methoxypyridine] are 5.41 min and < 5.00.
On to `CS(=O)(=O)c1ccc(-c2nnc(/C=C/c3nnc(-c4ccc(C#N)cc4)o3)n2-c2ccccc2Cl)nc1` [Compound (10), (E)-4-(5-(2-(4-(2-chlorophenyl)-5-(5-(methylsulfonyl)pyridin-2-yl)-4H-1,2,4-triazol-3-yl)vinyl)-1,3,4-oxadiazol-2-yl)benzonitrile], for which, in the data set on AXIN2, the “levels of cytoplasmic AXIN2” value is “significantly increased”. The cell growth inhibition result in the data set with HT29 cells is “dose-dependent growth inhibition”; with DLD-1 cells, “dose-dependent growth inhibition”; in the data set with HCT-15 cells, “dose-dependent growth inhibition”; in the data set on RKO cells it was “did not”; in the data set on COLO205 cells, “dose-dependent growth inhibition”; in the data set on WiDr cells, “dose-dependent growth inhibition”. Moreover, in the data set with COLO320DM cells, the cell growth inhibition entry is given as “dose-dependent growth inhibition”. Besides, the “nuclear β-catenin” value in the data set on β-catenin is “strong reduction”. In addition, in the data set on β-catenin, the “total β-catenin” value is recorded as “general reduction”. The pIC50 in the data set on STF/REN HEK293 cells was 7.30; at PARP1 (in vitro, table, read-out: IC50 value, PARP), < 4.70. Further, on PARP1 (at doses up to 20 μmol/L), the “inhibition of PARP1” value is “no inhibition”.
For the molecule `COc1cc(-c2nnc(/C=C/c3nnc(-c4ccncn4)n3-c3ccccc3Cl)o2)ccn1` [Compound (11), 4-(4-(2-chlorophenyl)-5-((E)-2-(5-(2-methoxypyridin-4-yl)-1,3,4-oxadiazol-2-yl)vinyl)-4H-1,2,4-triazol-3-yl)pyrimidine], the half-life at 3 μM in data set [1] worked out at 59.6 min. Also, the pIC50 in the data set with STF/REN HEK293 cells was 7.10.
Taken in the same sequence, the figures for `COc1cc(-c2nnc(/C=C/c3nnc(-c4ccc(S(C)(=O)=O)cn4)n3-c3ccccc3Cl)o2)ccn1` [Compound (12), 2-(4-(2-chlorophenyl)-5-((E)-2-(5-(2-methoxypyridin-4-yl)-1,3,4-oxadiazol-2-yl)vinyl)-4H-1,2,4-triazol-3-yl)-5-(methylsulfonyl)pyridine] were 37.1 min and 7.15.
Turning to `CCOc1ccc(-c2nnc(/C=C/c3nnc(-c4ccnc(OC)c4)o3)n2-c2ccccc2Cl)nc1` [Compound (13), 2-(4-(2-chlorophenyl)-5-((E)-2-(5-(2-methoxypyridin-4-yl)-1,3,4-oxadiazol-2-yl)vinyl)-4H-1,2,4-triazol-3-yl)-5-ethoxypyridine], the half-life at 3 μM in data set [1] worked out at 212 min. This molecule had a negative logarithm of the IC50 (pIC50) in the data set on STF/REN HEK293 cells of 6.96.
In the same order, the values of `CS(=O)(=O)c1ccc(-c2nnc(/C=C/c3nnc(-c4ccc(Cl)cc4)o3)n2-c2ccccc2Cl)nc1` [Compound (14), 2-(4-(2-chlorophenyl)-5-((E)-2-(5-(4-chlorophenyl)-1,3,4-oxadiazol-2-yl)vinyl)-4H-1,2,4-triazol-3-yl)-5-(methylsulfonyl)pyridine] are 371 min and 7.40.
In the case of `CS(=O)(=O)c1ccc(-c2nnc(C#Cc3nnc(-c4ccc(C#N)cc4)o3)n2-c2ccccc2Cl)nc1` [Compound (33), 4-{5-[4-(2-Chloro-phenyl)-5-(5-methanesulfonyl-pyridin-2-yl)-4H-[1,2,4]triazol-3-ylethynyl]-[1,3,4]oxadiazol-2-yl}-benzonitrile], the pIC50 with STF/REN HEK293 cells was 5.44.
In the data set on STF/REN HEK293 cells, `CS(=O)(=O)c1ccc(-c2nnc(/C=C/c3nnc(-c4ccc(C#N)cc4)o3)n2-c2ccc(OC(F)(F)F)cc2Cl)nc1` [Compound (56)] gave a negative logarithm of the IC50 (pIC50) of 6.41.
Still for that read-out and setting: the figure for `N#Cc1ccc(-c2nnc(/C=C/c3nnc(-c4ccc(OCC(F)(F)F)cn4)n3-c3ccccc3Cl)o2)cc1` [Compound (57), 4-[5-(2-{4-(2-Chloro-phenyl)-5-[5-(2,2,2-trifluoro-ethoxy)-pyridin-2-yl]-4H-[1,2,4]triazol-3-yl}-vinyl)-[1,3,4]oxadiazol-2-yl]-benzonitrile] is 7.00.
Turning to `CS(=O)(=O)c1ccc(-c2nnc(/C(F)=C(\F)c3nnc(-c4ccc(C#N)cc4)o3)n2-c2ccccc2Cl)nc1` [Compound (58), 4-(5-{2-[4-(2-Chloro-phenyl)-5-(5-methanesulfonyl-pyridin-2-yl)-4H-[1,2,4]triazol-3-yl]-1,2-difluoro-vinyl}-[1,3,4]oxadiazol-2-yl)-benzonitrile], the pIC50 in the data set on STF/REN HEK293 cells is < 5.00.
